Broadly, the IC50 is the concentration that gives 50% inhibition.

One assay has as its target JAK3 (Homo sapiens (Human), UniProt P52333). Nature of the assay: Jak Biochemical HTRF Assay (JAK3). The conditions noted are these: recombinant GST-tagged catalytic domain, [ATP] 2.9 μM. (In general: TR-FRET usually uses a lanthanide donor and a delayed reading to cut background.)
The next assay concerns the target JAK2 (Homo sapiens (Human), UniProt O60674). Nature of the assay: Jak Biochemical HTRF Assay (JAK2). Conditions: recombinant GST-tagged catalytic domain, [ATP] 8.5 μM.

Sequence of JAK3 (P52333 822-1111): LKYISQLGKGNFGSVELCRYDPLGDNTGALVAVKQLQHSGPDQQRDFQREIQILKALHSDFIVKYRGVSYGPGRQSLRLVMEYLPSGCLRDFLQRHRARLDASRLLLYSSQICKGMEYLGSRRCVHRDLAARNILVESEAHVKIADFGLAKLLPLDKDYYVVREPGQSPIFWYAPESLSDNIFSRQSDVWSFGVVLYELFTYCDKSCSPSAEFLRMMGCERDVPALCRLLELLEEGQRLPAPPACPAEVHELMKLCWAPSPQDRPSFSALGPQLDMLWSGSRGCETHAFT
Sequence of JAK2 (O60674 849-1124): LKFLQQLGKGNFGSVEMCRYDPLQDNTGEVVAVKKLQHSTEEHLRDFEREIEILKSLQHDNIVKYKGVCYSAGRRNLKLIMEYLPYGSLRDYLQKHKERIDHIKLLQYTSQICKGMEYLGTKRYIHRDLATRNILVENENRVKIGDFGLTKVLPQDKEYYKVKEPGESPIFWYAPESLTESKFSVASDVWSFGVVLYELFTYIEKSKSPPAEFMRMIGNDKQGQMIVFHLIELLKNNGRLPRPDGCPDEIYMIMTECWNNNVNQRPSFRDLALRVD

As to `C=C(Br)C(=O)Nc1cccc(-c2ncnc3[nH]cc(C(=O)OCC)c23)c1` [Example 5-5, ethyl 4-{3-[(2-bromoacryloyl)amino]phenyl}-7H-pyrrolo[2,3-d]pyrimidine-5-carboxylate], the IC50 amounted to 0.043 nM at JAK3 and 892 nM on JAK2.

In the case of `C=C(Cl)C(=O)Nc1cccc(-c2ncnc3[nH]cc(C(=O)OCC)c23)c1` [Example 5-6, ethyl 4-{3-[(2-chloroacryloyl)amino]phenyl}-7H-pyrrolo[2,3-d]pyrimidine-5-carboxylate], the IC50 on JAK3 was 0.22 nM; on JAK2 it was over 1500 nM.

Turning to `CCOC(=O)c1c[nH]c2ncnc(-c3cccc(NC(=O)CCC(C)=O)c3)c12` [Example 5-7, ethyl 4-{3-[(4-oxopentanoyl)amino]phenyl}-7H-pyrrolo[2,3-d]pyrimidine-5-carboxylate], the IC50 at JAK3 (given as range class) was 10 to 500 nM; on JAK2 (given as range class) it was over 500 nM.

As to `CCOC(=O)c1c[nH]c2ncnc(-c3cccc(NC(=O)/C=C/COC)c3)c12` [Example 5-8, ethyl 4-(3-{[(2E)-4-methoxybut-2-enoyl]amino}phenyl)-7H-pyrrolo[2,3-d]pyrimidine-5-carboxylate], the values for the IC50 on JAK3 and at JAK2 were 2.1 nM and over 1500 nM, respectively.

In the case of `C/C=C\C(=O)Nc1cccc(-c2ncnc3[nH]cc(C(=O)OCC)c23)c1` [Example 5-9, ethyl 4-{3-[(2Z)-but-2-enoylamino]phenyl}-7H-pyrrolo[2,3-d]pyrimidine-5-carboxylate], the IC50 was 8.3 nM at JAK3 and over 1500 nM on JAK2.

On to `C=C(F)C(=O)Nc1cc(-c2ncnc3[nH]cc(C(=O)OCC)c23)ccc1F` [Example 5-10, ethyl 4-{4-fluoro-3-[(2-fluoroacryloyl)amino]phenyl}-7H-pyrrolo[2,3-d]pyrimidine-5-carboxylate], for which the IC50 was 0.013 nM on JAK3 and over 1500 nM on JAK2.

Turning to `CCOC(=O)c1c[nH]c2ncnc(-c3cccc(NC(=O)C4=COCCO4)c3)c12` [Example 5-13, ethyl 4-{3-[(5,6-dihydro-1,4-dioxin-2-ylcarbonyl)amino]phenyl}-7H-pyrrolo[2,3-d]pyrimidine-5-carboxylate], the IC50 on JAK3 (given as range class) was 10 to 500 nM; on JAK2 (given as range class) it was over 500 nM.

Regarding `CCOC(=O)c1c[nH]c2ncnc(-c3cccc(NC(=O)/C=C/C(C)=O)c3)c12` [Example 5-14, ethyl 4-(3-{[(2E)-4-oxopent-2-enoyl]amino}phenyl)-7H-pyrrolo[2,3-d]pyrimidine-5-carboxylate], the IC50 at JAK3 is 5.3 nM; on JAK2, over 1500 nM.

Consider `CCOC(=O)c1c[nH]c2ncnc(-c3cccc(NC(=O)/C=C/c4c(C)nn(C)c4C)c3)c12` [Example 5-15, ethyl 4-(3-{[(2E)-3-(1,3,5-trimethyl-1H-pyrazol-4-yl)prop-2-enoyl]amino}phenyl)-7H-pyrrolo[2,3-d]pyrimidine-5-carboxylate], for which the IC50 at JAK3 (given as range class) was 10 to 500 nM; on JAK2 (given as range class) it was over 500 nM.

With `CCOC(=O)c1c[nH]c2ncnc(-c3cccc(NC(=O)/C=C/c4ccccn4)c3)c12` [Example 5-16, ethyl 4-(3-{[(2E)-3-pyridin-2-ylprop-2-enoyl]amino}phenyl)-7H-pyrrolo[2,3-d]pyrimidine-5-carboxylate], the IC50 at JAK3 came out at 6.6 nM; at JAK2 it was 452 nM.

With `CCOC(=O)c1c[nH]c2ncnc(-c3cccc(NC(=O)/C=C/c4ccncc4)c3)c12` [Example 5-17, ethyl 4-(3-{[(2E)-3-pyridin-4-ylprop-2-enoyl]amino}phenyl)-7H-pyrrolo[2,3-d]pyrimidine-5-carboxylate], the IC50 on JAK3 was 2 nM; on JAK2 it was over 1500 nM.

Take `CCOC(=O)c1c[nH]c2ncnc(-c3cccc(NC(=O)c4c[nH]c(=O)[nH]c4=O)c3)c12` [Example 5-18, ethyl 4-(3-{[(2,4-dioxo-1,2,3,4-tetrahydropyrimidin-5-yl)carbonyl]amino}phenyl)-7H-pyrrolo[2,3-d]pyrimidine-5-carboxylate]: the IC50 on JAK3 (given as range class) is 10 to 500 nM; on JAK2 (given as range class), over 500 nM.

The record behind these values is patent publication US8993756B2 (Merck Sharp & Dohme Corp., priority 2011, dated 2015).
